Experimental data published in article PMC11647725, “Discovery of 4-(5-Membered)Heteroarylether-6-methylpicolinamide Negative Allosteric Modulators of Metabotropic Glutamate Receptor Subtype 5” (ACS Medicinal Chemistry Letters, 2024).

Key:
human mGlu8 = target: T1, human mGlu8 (Homo sapiens, UniProt O00222); experiment: mGlu selectivity, calcium mobilization assay; assay type: cell-based
T1 construct: expressed in transfected cells
Description: (§1) the presence of 5% CO2, the dye solutions were removed and replaced with assay buffer using a microplate washer, leaving 20 μL of assay buffer in the cell plate. The compound, agonist, and cell plates were placed inside the Functional Drug Screening System (FDSS 7000 or uCell, Hamamatsu, Japan) to measure the calcium flux. Assays were run at 37 °C. A triple add protocol was used to measure Ca kinetics. Briefly, after establishment of a fluorescence baseline for 2 seconds (excitation, 480 nm; emission, 530 nm), 20 µL of test compound was added to the cells and the response was measured for 140 seconds. This was followed by the addition of 10 µL (5X) of an EC20 concentration of Glu agonist, and the response of the cells was measured for 125 seconds. A third addition occurred by adding 12 uL (5X) of an EC80 concentration of Glu agonist and the response of the cells was measured for 90 seconds. […] Calcium fluorescence was recorded as fold over basal fluorescence and raw data were normalized to the maximal response to Glu agonist (ECMax). Compound-evoked decreases in calcium response in the presence of Glu EC80 agonist were determined as inhibition activity, and potency (IC50) and maximum inhibition responses (% GluMin) of compounds were determined using a four-parameter logistical equation using GraphPad Prism (La Jolla, CA) or the Dotmatics software platform (Woburn, MA) : […]

human mGlu7 = target: T2, human mGlu7 (Homo sapiens, UniProt Q14831); experiment: mGlu selectivity, calcium mobilization assay; assay type: cell-based
T2 construct: expressed in transfected cells
Description: as §1

[1] = target: Serotonin (5-Hydroxytryptamine) 5-HT2B (Homo sapiens, UniProt P41595); experiment: Lead Profiling Screen, Eurofins Panlabs; assay type: binding; settings: Serotonin 5-HT2B, hum, read-out: % inh at 10 μM
Sequence of Serotonin (5-Hydroxytryptamine) 5-HT2B (P41595 whole entry): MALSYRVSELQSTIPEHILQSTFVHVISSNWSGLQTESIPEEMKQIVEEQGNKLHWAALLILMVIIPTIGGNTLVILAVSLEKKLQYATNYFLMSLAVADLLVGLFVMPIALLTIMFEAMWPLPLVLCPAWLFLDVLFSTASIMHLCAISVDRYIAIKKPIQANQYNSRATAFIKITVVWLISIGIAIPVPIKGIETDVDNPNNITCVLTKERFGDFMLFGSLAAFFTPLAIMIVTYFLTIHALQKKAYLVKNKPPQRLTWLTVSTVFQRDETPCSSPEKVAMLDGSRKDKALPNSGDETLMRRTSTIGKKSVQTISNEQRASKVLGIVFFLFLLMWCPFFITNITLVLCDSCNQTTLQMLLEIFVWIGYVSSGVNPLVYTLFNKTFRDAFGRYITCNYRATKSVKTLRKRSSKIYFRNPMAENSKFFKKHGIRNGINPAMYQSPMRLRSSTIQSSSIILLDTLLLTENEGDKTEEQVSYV

T1 sequence (O00222 34-908): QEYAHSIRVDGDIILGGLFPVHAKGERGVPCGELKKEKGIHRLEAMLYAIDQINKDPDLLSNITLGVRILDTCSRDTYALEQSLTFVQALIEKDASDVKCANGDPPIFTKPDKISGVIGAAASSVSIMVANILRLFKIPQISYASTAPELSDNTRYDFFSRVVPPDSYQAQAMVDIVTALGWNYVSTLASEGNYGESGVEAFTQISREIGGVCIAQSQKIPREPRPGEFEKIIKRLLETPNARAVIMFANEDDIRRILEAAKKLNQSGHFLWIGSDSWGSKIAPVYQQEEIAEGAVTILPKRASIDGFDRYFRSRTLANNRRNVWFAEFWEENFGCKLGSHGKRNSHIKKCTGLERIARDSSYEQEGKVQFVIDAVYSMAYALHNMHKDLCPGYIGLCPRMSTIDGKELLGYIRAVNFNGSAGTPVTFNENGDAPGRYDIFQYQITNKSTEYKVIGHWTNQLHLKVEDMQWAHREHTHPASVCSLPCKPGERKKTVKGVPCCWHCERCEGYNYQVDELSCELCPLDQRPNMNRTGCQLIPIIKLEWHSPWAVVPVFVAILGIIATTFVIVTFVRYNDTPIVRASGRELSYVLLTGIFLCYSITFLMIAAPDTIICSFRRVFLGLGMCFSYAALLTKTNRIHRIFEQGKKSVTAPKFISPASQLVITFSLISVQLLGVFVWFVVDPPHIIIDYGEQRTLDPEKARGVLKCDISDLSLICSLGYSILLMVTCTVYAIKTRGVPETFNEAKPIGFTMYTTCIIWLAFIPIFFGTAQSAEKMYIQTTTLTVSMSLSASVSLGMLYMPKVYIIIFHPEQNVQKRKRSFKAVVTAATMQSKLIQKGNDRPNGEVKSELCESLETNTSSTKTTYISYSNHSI
T2 sequence (Q14831 35-915): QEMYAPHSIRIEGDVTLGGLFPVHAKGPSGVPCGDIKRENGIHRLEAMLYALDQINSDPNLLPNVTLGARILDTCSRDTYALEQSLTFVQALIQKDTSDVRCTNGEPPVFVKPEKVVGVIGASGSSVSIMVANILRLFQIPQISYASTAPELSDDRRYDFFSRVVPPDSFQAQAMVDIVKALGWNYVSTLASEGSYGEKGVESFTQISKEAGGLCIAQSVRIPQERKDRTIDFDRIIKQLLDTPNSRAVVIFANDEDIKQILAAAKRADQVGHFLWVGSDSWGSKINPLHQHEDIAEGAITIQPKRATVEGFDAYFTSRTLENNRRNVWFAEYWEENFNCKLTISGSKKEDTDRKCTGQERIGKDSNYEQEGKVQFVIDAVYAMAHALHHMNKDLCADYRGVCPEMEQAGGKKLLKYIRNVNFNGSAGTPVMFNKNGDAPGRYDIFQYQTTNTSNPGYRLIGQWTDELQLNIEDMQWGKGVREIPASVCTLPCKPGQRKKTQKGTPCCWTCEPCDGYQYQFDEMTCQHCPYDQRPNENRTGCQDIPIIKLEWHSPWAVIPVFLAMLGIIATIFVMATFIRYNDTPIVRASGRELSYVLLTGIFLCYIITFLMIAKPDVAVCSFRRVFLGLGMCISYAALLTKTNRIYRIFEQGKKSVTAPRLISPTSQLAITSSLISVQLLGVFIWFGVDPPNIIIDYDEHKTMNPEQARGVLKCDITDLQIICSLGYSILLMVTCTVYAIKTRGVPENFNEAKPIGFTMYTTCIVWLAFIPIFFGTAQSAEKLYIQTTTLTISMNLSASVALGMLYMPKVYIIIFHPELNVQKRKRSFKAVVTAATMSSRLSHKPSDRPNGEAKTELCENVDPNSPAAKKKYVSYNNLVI

Compound: Cc1cc(Oc2cnn(C)c2)cc(C(=O)Nc2ccc(F)cn2)n1 [22iA]
- IC50, human mGlu8 (human mGlu8): inactive
- IC50, human mGlu7 (human mGlu7): inactive
- inhibition at 10 µM [1]: 40%
